Measurements published in ChEMBL document CHEMBL4765247, “Novel mouse GABA uptake inhibitors with enhanced inhibitory activity toward mGAT3/4 and their effect on pain threshold in mice” (Eur J Med Chem, 2020).

Assays:
Type in all cases: cell-based
[1] = target: T1, Sodium- and chloride-dependent betaine transporter (Homo sapiens, UniProt P48065); assay: Inhibition of human BGT1 expressed in tsA201 cells assessed as inhibition of [3H]GABA uptake by liquid scintillation method
T1 sequence (P48065 whole entry): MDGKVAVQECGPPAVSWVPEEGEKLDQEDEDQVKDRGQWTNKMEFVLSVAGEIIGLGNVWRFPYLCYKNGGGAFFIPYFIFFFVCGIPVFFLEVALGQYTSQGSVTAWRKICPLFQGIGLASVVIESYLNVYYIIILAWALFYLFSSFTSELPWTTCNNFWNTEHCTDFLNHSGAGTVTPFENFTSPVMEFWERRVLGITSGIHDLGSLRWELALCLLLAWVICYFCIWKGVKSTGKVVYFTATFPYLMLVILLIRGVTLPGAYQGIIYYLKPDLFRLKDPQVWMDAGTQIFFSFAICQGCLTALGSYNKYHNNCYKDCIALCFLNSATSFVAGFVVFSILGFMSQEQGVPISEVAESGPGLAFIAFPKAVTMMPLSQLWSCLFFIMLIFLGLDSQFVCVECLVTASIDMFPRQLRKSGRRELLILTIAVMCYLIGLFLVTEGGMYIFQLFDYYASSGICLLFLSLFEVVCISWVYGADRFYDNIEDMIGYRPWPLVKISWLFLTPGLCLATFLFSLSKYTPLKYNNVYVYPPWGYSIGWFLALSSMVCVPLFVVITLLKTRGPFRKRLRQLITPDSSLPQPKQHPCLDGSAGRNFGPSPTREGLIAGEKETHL

[2] = target: Sodium- and chloride-dependent GABA transporter 1 (Homo sapiens, UniProt P30531); assay: Inhibition of human […] expressed in tsA201 cells assessed as inhibition of [3H]GABA uptake by liquid scintillation method
Sodium- and chloride-dependent GABA transporter 1, sequence (P30531 whole entry): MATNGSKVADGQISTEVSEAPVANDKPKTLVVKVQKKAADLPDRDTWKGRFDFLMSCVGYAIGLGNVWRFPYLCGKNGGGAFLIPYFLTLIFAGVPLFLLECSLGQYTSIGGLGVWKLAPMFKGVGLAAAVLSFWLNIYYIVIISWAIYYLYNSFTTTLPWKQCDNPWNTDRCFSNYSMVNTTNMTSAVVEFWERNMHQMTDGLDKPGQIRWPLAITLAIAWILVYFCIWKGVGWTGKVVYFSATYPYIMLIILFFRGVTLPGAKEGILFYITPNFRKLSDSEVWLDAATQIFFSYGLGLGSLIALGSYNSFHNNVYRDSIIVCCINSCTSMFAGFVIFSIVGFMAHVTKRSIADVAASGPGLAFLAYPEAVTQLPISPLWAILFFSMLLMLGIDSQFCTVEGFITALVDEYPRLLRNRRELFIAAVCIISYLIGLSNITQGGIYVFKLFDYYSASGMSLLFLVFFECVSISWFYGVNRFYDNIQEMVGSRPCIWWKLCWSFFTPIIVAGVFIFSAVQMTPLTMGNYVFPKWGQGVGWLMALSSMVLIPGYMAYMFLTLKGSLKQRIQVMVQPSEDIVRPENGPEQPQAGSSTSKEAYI

[3] = target: T2, Sodium- and chloride-dependent GABA transporter 2 (Homo sapiens, UniProt Q9NSD5); assay: Inhibition of human […] expressed in tsA201 cells assessed as inhibition of [3H]GABA uptake by liquid scintillation method
T2 sequence (Q9NSD5 whole entry): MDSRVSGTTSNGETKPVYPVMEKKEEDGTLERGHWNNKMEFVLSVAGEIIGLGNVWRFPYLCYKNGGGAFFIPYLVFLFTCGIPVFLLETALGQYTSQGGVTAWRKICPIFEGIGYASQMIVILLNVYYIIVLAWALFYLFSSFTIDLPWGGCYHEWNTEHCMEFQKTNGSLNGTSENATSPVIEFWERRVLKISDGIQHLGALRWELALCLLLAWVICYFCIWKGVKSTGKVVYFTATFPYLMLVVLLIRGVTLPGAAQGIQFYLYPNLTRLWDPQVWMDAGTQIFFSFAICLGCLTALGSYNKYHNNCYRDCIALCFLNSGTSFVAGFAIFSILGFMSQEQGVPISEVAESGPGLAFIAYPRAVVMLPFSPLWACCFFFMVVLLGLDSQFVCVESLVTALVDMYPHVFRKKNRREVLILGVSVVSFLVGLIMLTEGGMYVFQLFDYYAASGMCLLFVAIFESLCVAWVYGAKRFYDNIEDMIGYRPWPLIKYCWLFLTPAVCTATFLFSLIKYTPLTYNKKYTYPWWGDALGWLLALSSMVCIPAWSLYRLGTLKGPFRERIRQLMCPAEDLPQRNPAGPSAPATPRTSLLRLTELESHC

[4] = target: T3, Sodium- and chloride-dependent GABA transporter 3 (Homo sapiens, UniProt P48066); assay: Inhibition of human […] expressed in tsA201 cells assessed as inhibition of [3H]GABA uptake by liquid scintillation method
T3 sequence (P48066 whole entry): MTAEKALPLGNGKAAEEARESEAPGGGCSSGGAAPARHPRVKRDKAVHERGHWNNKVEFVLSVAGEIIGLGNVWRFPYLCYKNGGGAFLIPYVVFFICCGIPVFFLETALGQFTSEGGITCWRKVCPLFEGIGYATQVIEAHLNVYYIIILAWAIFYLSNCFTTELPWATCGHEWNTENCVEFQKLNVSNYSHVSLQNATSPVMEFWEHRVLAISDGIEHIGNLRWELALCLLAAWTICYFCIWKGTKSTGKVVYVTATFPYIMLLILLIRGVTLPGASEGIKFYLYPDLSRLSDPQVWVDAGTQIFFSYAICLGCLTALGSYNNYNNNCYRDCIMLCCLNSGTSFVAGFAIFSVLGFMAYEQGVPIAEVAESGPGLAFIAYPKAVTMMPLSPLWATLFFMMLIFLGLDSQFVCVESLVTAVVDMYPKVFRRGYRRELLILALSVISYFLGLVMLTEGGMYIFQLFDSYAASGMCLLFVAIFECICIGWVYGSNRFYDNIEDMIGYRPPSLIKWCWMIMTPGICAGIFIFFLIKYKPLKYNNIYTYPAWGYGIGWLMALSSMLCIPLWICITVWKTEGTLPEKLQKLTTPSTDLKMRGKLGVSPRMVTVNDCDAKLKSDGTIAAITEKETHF

Structure (SMILES): NCC(N)C(=O)O (centres undefined)
- IC50 [1]: 631 µM
- IC50 [2]: > 1000 µM
- IC50 [3]: 39.8 µM
- IC50 [4]: 31.6 µM
